{"source": "patent US12419890B2", "about": "“Administration of sumo-activating enzyme inhibitor and checkpoint inhibitors” (Takeda Pharmaceutical Company Limited, priority 2019, dated 2025)", "system": "B16-F10 syngeneic mouse melanoma-derived subcutaneous tumor", "test": "B16-F10 Study 7: mouse B16-F10 syngeneic tumor model, individual tumor volume", "type": "in vivo", "settings": "delay from day 7 to day 10-12; of the 8 implanted tumors; Compound I-263a 7.5 mg/kg IV BIWx3 till Day 17", "method": "B16-F10 Study 7: B16-F10 is a mouse melanoma cell line. B16-F10 mouse syngeneic tumor model was generated by subcutaneous inoculation with 0.08×10^6 B16-F10 cells (cell suspension) in 11 weeks old female C57BL/6 mice (Taconic Biosciences, Rensselaer, NY) in the flank. When the mean tumor volume reached approximately 50 mm^3, the animals were randomized into one vehicle control and five treatment groups (n=8/group). Mice were then dosed with 20% HPbCD or Compound I-263a or anti-mouse PD-1 antibody over a 17-day period. Tumor growth and body weight were measured twice per week during the treatment and post-treatment periods, and mice were humanely euthanized once they had reached their humane endpoint.\nStudy 7: A 0.75 mg/mL stock solution of Compound I-263a was formulated weekly in 20% HPβCD and administered intravenously (IV) based on exact animal body weight on each day of treatment, using a dosing volume of 10 mL/kg body weight. Final doses received were 7.5 mg/kg. Dosing volume for Compound I-263a was 0.2 mL. […]\nTumors were measured twice weekly using vernier calipers. Tumor volumes were calculated using standard equation: V=W^2×L/2, where V=volume, W=width, and L=length for the tumor. […] Tumor size and body weight were measured twice a week for the duration of the study. […]", "data": [{"smiles": "Cc1sc(C(=O)c2cncnc2N[C@@H]2C[C@H](COS(N)(=O)=O)[C@@H](O)C2)cc1[C@@H]1NCCc2ccc(Cl)cc21", "note": "[Compound I-263a, [(1R,2S,4R)-4-{[5-({4-[(1R)-7-chloro-1,2,3,4-tetrahydroisoquinolin-1-yl]-5-methyl-2-thienyl}carbonyl)pyrimidin-4-yl]amino}-2-hydroxycyclopentyl]methyl sulfamate]", "values": [{"measurement": "tumors with tumor growth delay", "value": 2}]}]}
